In patent publication US9920088B2, “Triterpene derivative and its anti-influenza use” (Peking University, priority 2012, dated 2018):
Entries after “also recorded” stand apart in the source; their conditions may differ. Read-outs that look alike come from different tables or passages of the source.

Tests used:
B/ShenZhen/155/2005 = experiment: CPE reduction assay, B/SZ/155; format: cell-based; conditions: Influenza B virus, B/SZ/155, CPE
[1] = test system: A/Puerto Rico/8/34 (H1N1); experiment: CPE reduction assay, PR/8 (H1N1); format: cell-based; conditions: Influenza A virus
[2] = test system: influenza virus A/WSN/33(H1N1); experiment: Cytopathic effect (CPE) inhibition assay, WSN virus in MDCK cells; format: cell-based; conditions: for EC50: H1N1|WSN, 48 h; for Viral Infectivity (%): WSN MOI=1, 48 h, lower = better inhibition; for anti-influenza virus activity: WSN, CPE
[3] = test system: A/JiangXi-DongHu/312/2006 (H3N2); experiment: microbe, parasite or virus in culture; format: cell-based, influenza A virus
in vitro [4] = conditions: dog
MDCK cells = conditions: dog, 48 h; for Cell viability (%) / Cell viability(%): 50 μM
[5] = test system: different influenza viruses; experiment: CPE reduction assays on different influenza viruses; format: cell-based, influenza A virus and influenza B virus; conditions: for inhibition effect on different influenza viruses: PR/8, LN/1109, JX/312, HN/1222, B/SZ/155
[6] = target: influenza virus (WSN strain) hemagglutinin protein (HA) (Influenza A virus, UniProt P03454); experiment: Hemagglutination inhibition (HI) assay; conditions: chicken erythrocytes
in vitro [7] = conditions: human
[8] = test system: H1N1 pseudotype virus (A/WSN/33 (H1N1) HA/NA); experiment: microbe, parasite or virus in culture; format: cell-based; conditions: Influenza A virus, H1N1pp, DMSO set to zero, read-out: inhibition rate
in vitro [9] = conditions: human; remark: listed apart in the source
A/WSN/33 (H1N1) virus = experiment: Plaque inhibition assay; format: cell-based, influenza A virus; conditions: for Plaque number: 0 μM = 100
A/WSN/33(H1N1) virus = experiment: Time-of-addition experiment (viral NP by Western blotting); format: cell-based, influenza A virus
VSV pseudotype virus = experiment: microbe, parasite or virus in culture; format: cell-based; conditions: Vesicular stomatitis virus, read-out: inhibition rate
[10] = test system: H5N1 pseudotype virus (A/VietNam/1203/2004 (H5N1) HA/NA); experiment: microbe, parasite or virus in culture; format: cell-based; conditions: Influenza A virus, H5N1, read-out: inhibition rate
[11] = Cytotoxicity (CellTiter-Glo), MDCK cells; conditions: dog
HIV = conditions: reported by European researchers; cited from earlier work
[12] = PR/8 (H1N1), CPE, read-out: EC50

Chain of influenza virus (WSN strain) hemagglutinin protein (HA) (P03454 18-342 limits assumed): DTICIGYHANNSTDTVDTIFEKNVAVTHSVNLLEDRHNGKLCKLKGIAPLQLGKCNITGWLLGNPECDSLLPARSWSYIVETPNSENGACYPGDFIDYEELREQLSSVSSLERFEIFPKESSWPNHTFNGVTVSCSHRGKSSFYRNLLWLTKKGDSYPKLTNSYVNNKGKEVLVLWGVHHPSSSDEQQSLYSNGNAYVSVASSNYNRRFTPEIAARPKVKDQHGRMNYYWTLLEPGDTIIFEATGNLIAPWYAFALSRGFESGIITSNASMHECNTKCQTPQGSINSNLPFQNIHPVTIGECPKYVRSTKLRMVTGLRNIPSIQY
Chain of influenza virus (WSN strain) hemagglutinin protein (HA) (P03454 344-565 partner limits assumed): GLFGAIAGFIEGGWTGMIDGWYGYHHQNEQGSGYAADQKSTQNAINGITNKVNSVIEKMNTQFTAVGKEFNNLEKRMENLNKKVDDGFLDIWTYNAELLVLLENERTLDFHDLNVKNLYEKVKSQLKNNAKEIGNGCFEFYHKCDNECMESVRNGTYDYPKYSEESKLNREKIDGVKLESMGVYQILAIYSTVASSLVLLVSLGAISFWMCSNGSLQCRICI

NC(=O)c1ncn([C@@H]2O[C@H](CO)[C@@H](O)[C@H]2O)n1 [RBV, ribavirin, reference compound]
EC50 (B/ShenZhen/155/2005): 1.32 ± 0.6 µM
EC50 [1]: 4.02 ± 1.27 µM
EC50 ([2]; MDCK): 42.7 µM
EC50 ([3]; Influenza A virus, H3N2): 4.19 ± 0.35 µM

CC(=O)OCC1O[C@H](NC(=O)[C@]23CCC(C)(C)CC2C2=CCC4[C@@]5(C)CC[C@H](O)C(C)(C)C5CC[C@@]4(C)[C@]2(C)CC3)C(OC(C)=O)C(OC(C)=O)[C@@H]1OC(C)=O (stereo partly drawn) [Compound Y5, 3β-hydroxy-olean-12-en-28-oic acid-28-N-(2,3,4,6-tetra-O-acetyl-β-D-galactoside)]
CC50 at 48 h (in vitro [4]): > 100 µM
Cell viability (%) (MDCK cells): 81.7%
EC50 (B/ShenZhen/155/2005): 2.8 ± 0.74 µM
EC50 [1, 12]: 7.41 ± 0.05 µM
Viral Infectivity (%) ([2]; Table 8, 50 μM): 9.0%
anti-influenza virus activity ([2]; 50 μM): significant anti-influenza virus activity; also recorded: most significant anti-influenza virus activity
inhibition effect on different influenza viruses [5]: various extent of inhibition effect
EC50 ([5]; strain not specified): < 2 µM
EC50 ([3]; Influenza A virus, H3N2): 2.72 ± 0.35 µM

CC1(C)CC[C@]2(C(=O)O[C@H]3OC(CO)[C@@H](O)C(O)C3O)C(O)C[C@]3(C)C(=CC[C@@H]4[C@@]5(C)CC[C@H](O)C(C)(C)[C@@H]5CC[C@]43C)[C@@H]2C1 (stereo partly drawn) [Compound Q9, 3β,16α-dihydroxy-olean-12-en-28-oic acid-28-O-(β-D-galactoside)]
effect on binding of viruses to cellular receptors [6]: interfered the binding of viruses to cellular receptors
CC50 at 48 h (in vitro [7]): > 100 µM
CC50 at 48 h (in vitro [4]): > 100 µM
inhibition at 50 µM [8]: 61.9%
CC50 at 48 h (in vitro [9]): > 100 µM
IC50 (A/WSN/33 (H1N1) virus; Influenza A virus, WSN, MDCK cells, read-out: IC50 (plaque formation reduction)): < 5 µM
Plaque number (A/WSN/33 (H1N1) virus; Q9 5 μM): 42.9 ± 5.8
Plaque number (A/WSN/33 (H1N1) virus; Q9 10 μM): 21.8 ± 2.5
Plaque number (A/WSN/33 (H1N1) virus; Q9 25 μM): 14.1 ± 1.7
Plaque number (A/WSN/33 (H1N1) virus; Q9 50 μM): 7.6 ± 2.5
Plaque number (A/WSN/33 (H1N1) virus; Q9 100 μM): 0
CC50 (MDCK cells): > 200 µM
Cell viability (%) (MDCK cells): 100.3%
Cell viability(%) (MDCK cells): 89%
NP level reduction compared with the DMSO control (A/WSN/33(H1N1) virus; interval 0-2 h): ~62%
NP level reduction compared with the DMSO control (A/WSN/33(H1N1) virus; interval 0-10 h): around 75%
antiviral activity (A/WSN/33(H1N1) virus; intervals 2-5, 5-8, and 8-10 h): no antiviral activity was detected
stage of viral lifecycle acted on (A/WSN/33(H1N1) virus; time-of-addition): acted on the entry step of influenza virus into cells; also recorded: effective at the early stage (0-2 h) of the viral lifecycle
EC50 (B/ShenZhen/155/2005): 36.2 ± 7.21 µM
inhibition at 50 µM (VSV pseudotype virus): 3.8%
EC50 [1, 12]: 17.5 ± 0.43 µM
EC50 ([2]; MDCK): 48.7 µM
inhibition at 50 µM ([2]; MDCK, Table 9, 50 μM, protective rate against cytopathy, read-out: IAV inhibition rate (%)): 53.6 ± 6.16%
Viral Infectivity (%) ([2]; Table 6, 50 μM): 21.1%
Viral Infectivity (%) ([2]; Table 8, 50 μM): 21.1%
anti-influenza virus activity ([2]; 50 μM): significant inhibitory effect on influenza virus; also recorded: significant inhibition activity against influenza virus
inhibition effect on different influenza viruses [5]: various extent of inhibition effect
EC50 ([3]; Influenza A virus, H3N2): 16.9 ± 5.38 µM
inhibition at 50 µM [10]: 16.8%

CC(=O)OCC1O[C@H](O[C@H]2C(COC(C)=O)O[C@H](OC(=O)[C@]34CCC(C)(C)C[C@H]3C3=CC[C@@H]5[C@@]6(C)CC[C@H](O)C(C)(C)[C@@H]6CC[C@@]5(C)[C@]3(C)CC4O)C(OC(C)=O)C2OC(C)=O)C(OC(C)=O)C(OC(C)=O)[C@@H]1OC(C)=O (stereo partly drawn) [Compound Q10, 3β,16α-dihydroxy-olean-12-en-28-oic acid-28-O-(hepta-O-acetyl-β-D-lactoside)]
CC50 at 48 h (in vitro [7]): > 100 µM
CC50 at 48 h (in vitro [4]): > 100 µM
CC50 at 48 h (in vitro [9]): > 100 µM
Cell viability(%) (MDCK cells): 98.1%
EC50 ([2]; MDCK): > 100 µM
Viral Infectivity (%) ([2]; Table 6, 50 μM): 100.6%

NC12CC3CC(CC(C3)C1)C2 [Amantadine, amantadine, reference compound]
EC50 (B/ShenZhen/155/2005): > 83.2 µM
EC50 [1, 12]: 7.41 ± 0.21 µM
CC50 at 48 h [11]: > 200 µM
EC50 ([3]; Influenza A virus, H3N2): 8.58 ± 1.65 µM

CCOC(=O)C1=C[C@@H](OC(CC)CC)[C@H](NC(C)=O)[C@@H](N)C1 [OSV-P, oseltamivir phosphate, reference compound]
CC50 at 48 h (in vitro [7]): > 100 µM
CC50 at 48 h (in vitro [4]): > 100 µM
CC50 at 48 h (in vitro [9]): > 100 µM
CC50 (MDCK cells): > 200 µM
EC50 (B/ShenZhen/155/2005): 91.1 ± 34.5 µM
EC50 [1, 12]: > 200 µM
EC50 ([2]; MDCK): 45.6 µM
EC50 ([3]; Influenza A virus, H3N2): 2.06 ± 0.58 µM

CC1(C)CC[C@]2(C(=O)O)CC[C@]3(C)C(=CC[C@@H]4[C@@]5(C)C[C@@H](O)[C@H](O)C(C)(C)[C@@H]5CC[C@]43C)[C@@H]2C1 [hawthorn acid]
inhibition rate of spread of HIV in the body (HIV): up to 80%

CC1(C)CC[C@@]2(C(=O)N[C@H]3OC(CO)[C@@H](O)C(O)C3O)C(C1)C1=CCC3[C@@]4(C)CC[C@H](O)C(C)(C)C4CC[C@@]3(C)[C@]1(C)C[C@H]2O (stereo partly drawn) [Compound Y2, 3β,16α-dihydroxy-olean-12-en-28-oic acid-28-N-(β-D-galactoside)]
CC50 at 48 h (in vitro [4]): > 100 µM
Cell viability (%) (MDCK cells): 105.0%
EC50 (B/ShenZhen/155/2005): > 22.2 µM
EC50 [1, 12]: 6.22 ± 0.83 µM
Viral Infectivity (%) ([2]; Table 8, 50 μM): 17.5%
anti-influenza virus activity ([2]; 50 μM): significant anti-influenza virus activity
inhibition effect on different influenza viruses [5]: various extent of inhibition effect
EC50 [3]: > 22.2 µM
